Consider two compounds from US9579406B2, “Phospholipid ether analogs as agents for detecting and locating cancer, and methods thereof” (Cellectar, Inc., priority 2004, dated 2017).

For data set [1], the system named is Walker-256 carcinosarcoma. Nature of the data set: Tissue distribution of radioactivity in rats bearing Walker-256 carcinosarcoma. Type of data set: in vivo, rat.
Data set [2] is described as follows: Acute GLP toxicology, single iv dose, 14 days observation, rats. The class given is in vivo. As to the method:
Drug vehicle and drug product were provided to Dr. Kostyniak by Dr. Raymond Counsell of the University of Michigan for testing as described in the appended synopses of Study 27 and Study 28. […] This toxicology study was performed under GLP conditions.
This toxicology study was performed under GLP conditions.
The control and test rats were injected intravenously in the lateral tail vein. The rats were injected with the test or control article intravenously at 2 ml/kg of body weight using a 25 gauge needle and a 1-ml syringe. The injections were given by alternating rats from the control group with rats from the test group. The injections were given cautiously over a 30 second to one minute time interval. The injection to control rat #27-01 was given at 9:03 am and last injection to test rat #27-16 was given at 11:01 am.
The rats were observed by LAF personnel for signs of acute toxicity from the time of injection until […]. The rats were weighed five (5) times a week (Monday through Friday) and their body weights, recorded in […]. On Dec. […] A heart puncture was then performed using a 20 gauge needle and a 10 ml syringe to collect the blood samples for the hematological CBC and the clinical blood chemistries. The rats were exsanguinated to cause death. The thymus, heart, lungs, spleen, kidneys, liver, brain, and testes were collected, examined grossly, weighed and sectioned for pathology. The tissue samples (except thymus) were placed in jars of “Z-fix” fixative for histology.
Sixteen (16) Sprague-Dawley rats were received from Harlan-Sprague Dawley, Indianapolis, Ind. […] They were housed at the Laboratory Animal Facility and given food and water ad lib. Each rat was given a two-part number starting with 27 (the study number) and followed by a ‘unique’ number of ‘01’ to ‘16’ (numerical). Each rat was ear punched in the right ear with the unique number of ‘01’ to ‘16’. The control rats were numbered from #27-01 to #27-08 and the test rats were numbered from #27-09 to #27-16. The unique numbers were also applied to each cage indicating which rats were housed within that cage. There were four cages of control rats and four cages of test rats. […] The two groups of eight (8) rats were established by random assignment. The rats were weighed daily until the termination of the study on Day 14.
Safety: On Day 14, the blood samples for both groups will be analyzed for hematology and clinical chemistry. Additionally, the following organs will be removed for pathology report and histology slides: brain, lung, liver, heart, kidney, spleen, and testes. A compilation chart of organ weights with organ/weight ratios for each rat may be compiled.

For data set [3], the system named is phospholipase D (PLD). Description: Phospholipase D (PLD) assay. The class given is biochemical, cabbage. To be noted: in the presence of ethanol. As to the method:
Finally, several PLE analogs were subjected to a phospholipase D (PLD) assay. The PLD, which was isolated from cabbage, is similar to mammalian PLD in that the cabbage form affords phosphatidylethanol-type products in addition to phosphatidic acid when the enzymatic reaction is performed in the presence of ethanol. Several of the PLE analogs subjected to these assay conditions did give rise to the phosphatidylethanol adduct, indicating possible interaction with PLD. The inventors believes that NM404 is a metabolic substrate to human Phospholipase D, and that the relative absence of Phospholipase D in cancer cell membranes is the underlying mechanism for tumor-selective retention of NM404. Although known from the literature (reference[…]), it is still unclear why cancers lack PLD in their membranes.
As conclusion, the mechanism of selective retention of NM404 may be due to a decrease in the membrane levels of PLD, thus precluding metabolism and clearance of NM404 from the cell. […] This supports the finding of the in vitro cell culture uptake and retention study wherein it was shown that PLE analogs were sequestered by and subsequently metabolized by normal cells (which contained normal levels of PLD). […]

The subject of data set [4] is Colon LS-180. Description: Tumor models examined with NM404 (Table 2). The class given is in vivo, Nude Mouse. To be noted: Adenocarcinoma. From the text: (§1) NM404 has now been evaluated in 27 animal tumor models, including several lung, and it is clear that once the agent enters tumor cells, it reaches a metabolic dead end and becomes trapped. […] NM404 is also retained in spontaneous murine lung tumors (FIG. 13). Using ^125I-labeled NM404, the inventors have been able to image mammary and prostate tumors in mice in excess of 60 days. […] Imaging and tissue distribution studies performed in mouse models aimed at determining the uptake characteristics in a wide variety of tumor models are summarized in Table 2.
(§2) Although tumor retention can be explained by a lack of metabolic phospholipase enzymes in the tumor cell membranes, the exact mechanism of tumor cell uptake is unknown. […] The inventors are currently evaluating the selectivity of NM404 in a unique mouse tumor model developed at Wisconsin, wherein both preneoplastic hyperplasias and malignant adenocarcinomas form spontaneously in the mammary gland. […] If this initial observation is validated, then via genomic and or proteomic analysis the inventors may be able to identify a key genetic difference between malignant tumors and their non malignant predecessor cells. This could identify a completely new molecular therapeutic target that may be universal for all types of cancer.

Data set [5] relates to Lung NCI H-69 (Oat Cell). Description: Tumor models examined with NM404 (Table 2). Particulars: Small cell carcinoma. Type of data set: in vivo, Nude Mouse.
Description: as §1, §2

The test system of data set [6] is Melanoma A-375. Description: Tumor models examined with NM404 (Table 2). Type of data set: in vivo, Nude Mouse.
Description: as §1, §2

In data set [7] the test system is Ovarian HTB-77. Description: Tumor models examined with NM404 (Table 2). The class given is in vivo, Nude Mouse. Particulars: Adenocarcinoma.
Description: as §1, §2

In data set [8] the test system is Mammary Adenocarcinoma. Description: Tumor models examined with NM404 (Table 2). Type of data set: in vivo, Apc/^min+ mouse.
Description: as §1, §2

In data set [9] the test system is Mammary SCC. Description: Tumor models examined with NM404 (Table 2). Type of data set: in vivo, Apc/^min+ mouse. To be noted: Squamous cell carcinoma.
Description: as §1, §2

Data set [10] has as its system PC3 human prostate cancer. Nature of the data set: Radiotherapy study in PC-3 SCID mouse xenograft model. Type of data set: in vivo. To be noted: after treatment. As to the method:
PC-3 (human prostate cancer, from ATCC) are maintained in Ham's F-12K media supplemented with 10% fetal bovine serum. Tumor cell suspension (1×10^6 cells in phosphate-buffered saline) is injected s.c. into the right flank of male SCID mice (6-8 weeks, C.B-17/IcrHsd-Prkcd^scid, Harlan). Animals are given free access to food and water, tumor growth and animal weight are monitored. Upon reaching 4-5 mm in diameter, mice will be divided into groups of 6 for therapy study.
Single injection of SF404A at Day 0
Groups: • (1) 5 study groups: 4 treatment+1 control • (2) N=6 per group • (3) 4 acute dose levels: 50, 150, 250 and 500 μCi per mouse • (4) Control group dosed with equivalent mass amount of NM404: 0 μCi per mouse (“cold” NM404)

[11] abbreviates: male rats, 2 mg/ml at 2 ml/kg iv, 14 days.
Where [12] appears, read: male rats, 2 mg/ml at 2 ml/kg iv, day 14.

For `C[N+](C)(C)CCOP(=O)([O-])OCCCCCCCCCCCCCCCCCCc1ccc(I)cc1` [NM-404, 18-(4-iodophenyl)-octadecylphosphocholine], the “radioactivity in the tumor (peak)” value in [1] (48 hours after administration) was 1.14±0.01 % of ID/g. In addition, the blood levels in data set [1] (120 hours) is on record as 0.6±0.1 % of ID/g. Further, the “time of peak tumor radioactivity” value in [1] (after administration) was 48 h. Also, the “acute toxicologic effects (conclusion)” value in [2] (setting [11]) is “No acute toxicologic effects attributable to the test article had been found”. In data set [2] (setting [11]), the behavior result is “No unusual behavior was noted”. Besides, the “mean body weights, test versus control group” value in data set [2] (setting [11]) was “not significantly different”. The “tail vein injection site reactions” value in data set [2] (setting [11]) was “no adverse tissue reactions were noted”. Further, the “clinical blood chemistries and hematology, t-test versus control” value in data set [2] (setting [12]) was “no significant differences found”. The “gross examination of tissues” value in data set [2] (setting [12]) is on record as “No gross lesions were noted”. In addition, in data set [2] (setting [12]), the histopathology of organs result is reported as “no changes in the histopathology of the organs examined that can be attributed to the administration of the test material”. Also, the toxic effects result in data set [2] (male rats, 4 mg/kg (Study 27)) is “no significant toxic effects were noted”. The acute toxicity entry in data set [2] (unlabeled, 1200 times the anticipated imaging mass dose) was “no acute toxicities were found”. The “substrate for PLD” value in data set [3] is listed as “a good substrate for this enzyme”. Further, the “NM404 Tumor Localization” value in data set [4], in data set [5], in [6], in data set [7], in data set [8] and in data set [9] was “Yes (Localization defined as >5% injected dose per gram tumor basis based on tissue distribution data)” throughout.

As to `C[N+](C)(C)CCOP(=O)([O-])OCCCCCCCCCCCCCCCCCCc1ccc([125I])cc1` [Compound I-125-NM404], the “time at which treatment and control tumor growth curves separate” value in data set [10] was 4-5 weeks.
